Data: ChEMBL document CHEMBL2424616, “Synthesis and antimicrobial activity of novel 5-(1-adamantyl)-2-aminomethyl-4-substituted-1,2,4-triazoline-3-thiones” (2013)
In brackets after ≈: the same amount, converted by molar mass.

Experiments:
Assay type in all cases: functional
Candida albicans = assay: Antifungal activity against Candida albicans IFO 0583 assessed as growth inhibition at 200 ug/disc after 48 hrs by agar disc-diffusion method; conditions: IFO 0583, 48 h, read-out: DIZ
Pseudomonas aeruginosa = assay: Antibacterial activity against Pseudomonas aeruginosa IFO 3448 assessed as growth inhibition at 200 ug/disc after 24 hrs by agar disc-diffusion method; conditions: IFO 3448, 24 h, read-out: DIZ
Escherichia coli = assay: Antibacterial activity against Escherichia coli IFO 3301 assessed as growth inhibition at 200 ug/disc after 24 hrs by agar disc-diffusion method; conditions: IFO 3301, 24 h, read-out: DIZ
Micrococcus luteus = assay: Antibacterial activity against Micrococcus luteus IFO 3232 assessed as growth inhibition at 200 ug/disc after 24 hrs by agar disc-diffusion method; conditions: IFO 3232, 24 h, read-out: DIZ
Bacillus subtilis [1] = assay: Antibacterial activity against Bacillus subtilis IFO 3007 assessed as growth inhibition at 200 ug/disc after 24 hrs by agar disc-diffusion method; conditions: IFO 3007, 24 h, read-out: DIZ
Staphylococcus aureus [2] = assay: Antibacterial activity against Staphylococcus aureus IFO 3060 assessed as growth inhibition at 200 ug/disc after 24 hrs by agar disc-diffusion method; conditions: IFO 3060, 24 h, read-out: DIZ
Bacillus subtilis [3] = assay: Antibacterial activity against Bacillus subtilis IFO 3007 after 24 hrs by two fold dilution method; conditions: IFO 3007, 24 h
Staphylococcus aureus [4] = assay: Antibacterial activity against Staphylococcus aureus IFO 3060 after 24 hrs by two fold dilution method; conditions: IFO 3060, 24 h

MIC (Bacillus subtilis [3]) [µg/mL] | MIC (Staphylococcus aureus [4]) [µg/mL] | SMILES | zone of inhibition at 200 µg/disc (Candida albicans) [mm] | zone of inhibition at 200 µg/disc (Pseudomonas aeruginosa) [mm] | zone of inhibition at 200 µg/disc (Escherichia coli) [mm] | zone of inhibition at 200 µg/disc (Micrococcus luteus) [mm] | zone of inhibition at 200 µg/disc (Bacillus subtilis [1]) [mm] | zone of inhibition at 200 µg/disc (Staphylococcus aureus [2]) [mm]
– | – | Cn1c(C23CC4CC(CC(C4)C2)C3)nn(CNc2ccccc2)c1=S | < 10 | < 10 | < 10 | < 10 | 12 | < 10
– | – | S=c1n(CNc2ccccc2Cl)nc(C23CC4CC(CC(C4)C2)C3)n1-c1ccc(Cl)cc1 | < 10 | < 10 | < 10 | < 10 | 11 | 16
– | – | CCOc1ccc(NCn2nc(C34CC5CC(CC(C5)C3)C4)n(-c3ccc(Cl)cc3)c2=S)cc1 | < 10 | < 10 | < 10 | < 10 | < 10 | < 10
16 (≈ 30.8 µM) | – | FC(F)(F)c1ccccc1NCn1nc(C23CC4CC(CC(C4)C2)C3)n(-c2ccc(Cl)cc2)c1=S | < 10 | 11 | 12 | 14 | 19 | 17
– | – | Fc1ccccc1NCn1nc(C23CC4CC(CC(C4)C2)C3)n(-c2ccc(Cl)cc2)c1=S | < 10 | < 10 | < 10 | 12 | 12 | 11
– | – | Cn1c(C23CC4CC(CC(C4)C2)C3)nn(CNc2ccc(F)cc2)c1=S | < 10 | < 10 | < 10 | < 10 | 12 | 12
– | – | Fc1ccc(NCn2nc(C34CC5CC(CC(C5)C3)C4)n(-c3ccc(Cl)cc3)c2=S)cc1 | < 10 | < 10 | < 10 | 12 | 16 | 14
8 (≈ 16.4 µM) | – | Fc1cccc(F)c1NCn1nc(C23CC4CC(CC(C4)C2)C3)n(-c2ccc(Cl)cc2)c1=S | 13 | 11 | 14 | 17 | 20 | 18
– | – | S=c1n(CNc2ccc(Br)cc2)nc(C23CC4CC(CC(C4)C2)C3)n1-c1ccc(Cl)cc1 | < 10 | < 10 | < 10 | < 10 | < 10 | < 10
– | – | S=c1n(CN2CCN(c3ccccc3)CC2)nc(C23CC4CC(CC(C4)C2)C3)n1-c1ccc(Cl)cc1 | < 10 | < 10 | < 10 | 14 | 17 | 16
16 (≈ 37.8 µM) | 8 (≈ 18.9 µM) | Cn1c(C23CC4CC(CC(C4)C2)C3)nn(CN2CCN(c3ccccc3)CC2)c1=S | < 10 | < 10 | < 10 | 14 | 18 | 19
– | – | S=c1n(CNc2ccccc2)nc(C23CC4CC(CC(C4)C2)C3)n1-c1ccc(Cl)cc1 | < 10 | < 10 | < 10 | < 10 | < 10 | < 10
8 (≈ 16.9 µM) | – | CCN1CCN(Cn2nc(C34CC5CC(CC(C5)C3)C4)n(-c3ccc(Cl)cc3)c2=S)CC1 | < 10 | < 10 | < 10 | 15 | 18 | 14
16 (≈ 29.1 µM) | 16 (≈ 29.1 µM) | COc1ccccc1N1CCN(Cn2nc(C34CC5CC(CC(C5)C3)C4)n(-c3ccc(Cl)cc3)c2=S)CC1 | < 10 | < 10 | < 10 | 16 | 18 | 18
